The values below come from article PMC10377643, “Exploration of Bis-Cinnamido-Polyamines as Intrinsic Antimicrobial Agents and Antibiotic Enhancers” (Biomolecules, 2023).

Structures are written as SMILES. ≈ marks a conversion by molar mass, not a printed value.

For data set [1], the system named is S. aureus ATCC 25923. Nature of the data set: Antimicrobial MIC, S. aureus. It is filed as cell-based. The following applies: Staphylococcus aureus, ATCC25923, mean (n = 3). As to the method: (§1) The susceptibility of bacterial strains S. aureus (ATCC 25923), E. coli (ATCC 25922) and P. aeruginosa (ATCC 27853) to antibiotics and compounds was determined using protocols reported previously. Additional antimicrobial evaluation against MRSA (ATCC 43300), Klebsiella pneumoniae (ATCC 700603), Acinetobacter baumannii (ATCC 19606), Candida albicans (ATCC 90028) and Cryptococcus neoformans (ATCC 208821) was undertaken at the Community for Open Antimicrobial Drug Discovery at The University of Queensland (Australia) according to their standard protocols reported previously.

Data set [2] relates to E. coli ATCC 25922. Nature of the data set: Erythromycin enhancement against E. coli. It counts as cell-based, Escherichia coli. Particulars: erythromycin fixed at 10.9 µM (8 µg/mL). As to the method:
(§2) Antibiotic enhancer concentrations were determined using previously reported protocols.

Data set [3] relates to E. coli ATCC 25922. In words: Antimicrobial MIC, E. coli. It counts as cell-based, Escherichia coli. Particulars: mean (n = 3). As to the method:
as §1

Data set [4] deals with C. albicans ATCC 90028. Nature of the data set: Antifungal MIC, C. albicans (CO-ADD). It counts as cell-based. Particulars: Candida albicans, ATCC90028, mean (n = 2). As to the method:
as §1

In data set [5] the test system is P. aeruginosa ATCC 27853. Nature of the data set: Antimicrobial MIC, P. aeruginosa. It counts as cell-based. The following applies: Pseudomonas aeruginosa, ATCC27853, mean (n = 3). As to the method: as §1
For data set [6], the system named is C. neoformans ATCC 208821. Nature of the data set: Antifungal MIC, C. neoformans (CO-ADD). It counts as cell-based. The following applies: Cryptococcus neoformans, ATCC208821, mean (n = 2). As to the method:
as §1

In data set [7] the test system is MRSA ATCC 43300. In words: Antimicrobial MIC, MRSA (CO-ADD). It counts as cell-based, methicillin-resistant S. aureus. Particulars: Staphylococcus aureus; MRSA ATCC 43300; mean (n = 2); read-out: MIC MRSA. As to the method:
as §1

The subject of data set [8] is P. aeruginosa ATCC 27853. In words: Doxycycline enhancement against P. aeruginosa. The following applies: doxycycline fixed at 4.5 µM. It is filed as cell-based, Pseudomonas aeruginosa. As to the method:
as §2
We then evaluated the set of analogues for the ability to enhance the antibiotic activity of doxycycline against P. aeruginosa ATCC 27853 and of erythromycin against E. coli ATCC 25922 (Table 2). In the case of doxycycline, a fixed concentration of the antibiotic of 4.5 μM, which is twenty-fold lower than the intrinsic MIC 90 μM against this organism, was used. Each of the test compounds was then evaluated at a range of concentrations varying from 3.125 to 50–100 μM, with the upper concentration dependent upon the compounds intrinsic MIC towards P. aeruginosa (Table 1). […] While the observation of cytotoxicity/hemolytic properties of 16a–c, 14f and 13f reduces our interest in these analogues, analogues 13b and 13d were identified as non-toxic and strong enhancers of the action of doxycycline towards P. aeruginosa.

In data set [9] the test system is human red blood cells. In words: Hemolytic assay. It is filed as cell-based. Particulars: mean (n = 2). As to the method:
Hemolysis assays were conducted using the protocols previously reported.

Data set [10] is described as follows: Cytotoxicity assay. It counts as cell-based, human. The following applies: human, HEK293 human embryonic kidney cells, mean (n = 2), read-out: Cytotoxicity (IC50), concentration of compound at 50% cytotoxicity. As to the method: Cytotoxicity assays were conducted using the protocols previously reported.
Setting [11] is: Escherichia coli, ATCC25922, E. coli ATCC 25922.

In general, MIC refers to the least concentration at which growth counts as inhibited. For the compound `O=C(C=Cc1ccccc1)NCCCNCCCCNCCCNC(=O)C=Cc1ccccc1.O=C(O)C(F)(F)F.O=C(O)C(F)(F)F` [Compound 13a, N^1,N^4-Bis(3-cinnamamidopropyl)butane-1,4-diaminium 2,2,2-trifluoroacetate], the MIC in [1] was 724 µM; in data set [3] (setting [11]), 724 µM; in [4], above 46.3 µM; in data set [5], 724 µM; in data set [6], above 46.3 µM; in data set [7], above 46.3 µM. Further, the “Eryth/E. c: concentration required to restore erythromycin activity” value (shortened to “Eryth/E. c: concentration required”) in [2] turned out to be 145 µM. The “Eryth/E. c: fold change (intrinsic MIC of test compound / combination MIC)” value in data set [2] was found to be 5 fold. Besides, the “Dox/P. a: concentration required to restore doxycycline activity” value (from here on “Dox/P. a: concentration required”) in [8] is listed as 145 µM. Also, the “Dox/P. a: fold change (intrinsic MIC of test compound / combination MIC)” value in [8] stood at 5 fold.

Consider `COc1ccc(/C=C/C(=O)NCCCNCCCCNCCCNC(=O)/C=C/c2ccc(OC)cc2)cc1.O=C(O)C(F)(F)F.O=C(O)C(F)(F)F` [Compound 14a, N^1,N^4-Bis(3-((E)-3-(4-methoxyphenyl)acrylamido)propyl)butane-1,4-diaminium 2,2,2-trifluoroacetate], for which the MIC in data set [1] was 33.3 µM; in [3] (setting [11]), 266 µM; in data set [4], above 42.6 µM; in data set [5], above 266 µM; in data set [7], above 42.6 µM. Besides, in [2], the “Eryth/E. c: concentration required” value is on record as 67 µM. Further, the “Eryth/E. c: fold change (intrinsic MIC of test compound / combination MIC)” value in data set [2] is reported as 4 fold. In addition, in data set [9], the “Hemolysis (HC10), concentration of compound at 10% hemolytic activity” value (“Hemolysis (HC10) … at 10% hemolytic activity” below) was above 42.6 µM. The IC50 in data set [10] is above 42.6 µM. In addition, the “Dox/P. a: concentration required” value in data set [8] is given as 16.6 µM. Besides, the “Dox/P. a: fold change (intrinsic MIC of test compound / combination MIC)” value in data set [8] is recorded as above 16 fold.

Turning to `COc1ccc(/C=C/C(=O)NCCCNCCCCCCCNCCCNC(=O)/C=C/c2ccc(OC)cc2)cc1.O=C(O)C(F)(F)F.O=C(O)C(F)(F)F` [Compound 14c, N^1,N^7-Bis(3-((E)-3-(4-methoxyphenyl)acrylamido)propyl)heptane-1,7-diaminium 2,2,2-trifluoroacetate], the MIC in data set [1] was 31.5 µM; in data set [3] (setting [11]) it was 252 µM; in data set [4], above 40.4 µM; in data set [5], above 252 µM; in data set [7] it was 20.2 µM. The “Eryth/E. c: concentration required” value in data set [2] is listed as 126 µM. The “Eryth/E. c: fold change (intrinsic MIC of test compound / combination MIC)” value in [2] is on record as 2 fold. The “Hemolysis (HC10) … at 10% hemolytic activity” value in data set [9] is above 40.4 µM. In [10], the IC50 was above 40.4 µM. Further, in data set [8], the “Dox/P. a: concentration required” value amounted to 31.5 µM. Also, the “Dox/P. a: fold change (intrinsic MIC of test compound / combination MIC)” value in [8] is listed as above 8 fold.

Consider `COc1ccc(/C=C/C(=O)NCCCNCCCCCCCCCCNCCCNC(=O)/C=C/c2ccc(OC)cc2)cc1.O=C(O)C(F)(F)F.O=C(O)C(F)(F)F` [Compound 14e, N^1,N^10-Bis(3-((E)-3-(4-methoxyphenyl)acrylamido)propyl)decane-1,10-diaminium 2,2,2-trifluoroacetate], for which the MIC was 1.87 µM in data set [1]; 120 µM in [3] (setting [11]); 38.3 µM in data set [4]; 240 µM in [5]; at most 0.3 µM in data set [6]; at most 0.3 µM in [7]. For the same compound, the “Hemolysis (HC10) … at 10% hemolytic activity” value in data set [9] is listed as above 38.3 µM. In addition, the IC50 in data set [10] turned out to be 2.3 µM. For the same compound, in [8], the “Dox/P. a: concentration required” value amounted to 60 µM. The “Dox/P. a: fold change (intrinsic MIC of test compound / combination MIC)” value in [8] stood at 4 fold.

For `COc1ccc(/C=C/C(=O)NCCCNCCCCCCCCCCCCNCCCNC(=O)/C=C/c2ccc(OC)cc2)cc1.O=C(O)C(F)(F)F.O=C(O)C(F)(F)F` [Compound 14f, N^1,N^12-Bis(3-((E)-3-(4-methoxyphenyl)acrylamido)propyl)dodecane-1,12-diaminium 2,2,2-trifluoroacetate], the MIC in data set [1] is 3.62 µM; in data set [3] (E. coli ATCC 25922) it was 7.24 µM; in [3] (setting [11]), 7.2 µM; in data set [4] it was above 37.1 µM; in [5], 232 µM; in data set [7] it was at most 0.29 µM. In addition, the “Eryth/E. c: concentration required” value in data set [2] is given as 3.62 µM. Besides, the “Eryth/E. c: fold change (intrinsic MIC of test compound / combination MIC)” value in data set [2] came to 2 fold. The IC50 in data set [10] is 24.3 µM. The “Dox/P. a: concentration required” value in data set [8] is recorded as 7.24 µM. Further, the “Dox/P. a: fold change (intrinsic MIC of test compound / combination MIC)” value in [8] was 32 fold.

Turning to `COc1ccc(/C=C/C(=O)NCCCNCCCCNCCCNC(=O)/C=C/c2ccc(OC)c(Br)c2)cc1Br.O=C(O)C(F)(F)F.O=C(O)C(F)(F)F` [Compound 15a, N^1,N^4-Bis(3-((E)-3-(3-bromo-4-methoxyphenyl)acrylamido)propyl)butane-1,4-diaminium 2,2,2-trifluoroacetate], the MIC in data set [1] was 13.8 µM; in [3] (setting [11]) it was 55 µM; in data set [4], 17.6 µM; in data set [5] it was above 220 µM; in data set [6], at most 0.28 µM; in data set [7], 2.2 µM. For the same compound, in data set [2], the “Eryth/E. c: concentration required” value came out at 13.7 µM. In data set [2], the “Eryth/E. c: fold change (intrinsic MIC of test compound / combination MIC)” value was 4 fold. The IC50 in [10] was above 35.2 µM. The “Dox/P. a: concentration required” value in data set [8] is on record as 27.5 µM. Besides, the “Dox/P. a: fold change (intrinsic MIC of test compound / combination MIC)” value in [8] was above 8 fold.

Regarding `COc1ccc(/C=C/C(=O)NCCCNCCCCCCCNCCCNC(=O)/C=C/c2ccc(OC)c(Br)c2)cc1Br.O=C(O)C(F)(F)F.O=C(O)C(F)(F)F` [Compound 15c, N^1,N^7-Bis(3-((E)-3-(3-bromo-4-methoxyphenyl)acrylamido)propyl)heptane-1,7-diaminium 2,2,2-trifluoroacetate], the MIC was 6.57 µM in data set [1]; 26 µM in data set [3] (setting [11]); 8.4 µM in [4]; above 210 µM in [5]; at most 0.26 µM in [6]; at most 0.26 µM in [7]. Further, the “Eryth/E. c: concentration required” value in [2] is recorded as 13.1 µM. Also, the “Eryth/E. c: fold change (intrinsic MIC of test compound / combination MIC)” value in data set [2] was determined as 2 fold. In addition, the IC50 in data set [10] is above 33.7 µM. For the same compound, in [8], the “Dox/P. a: concentration required” value amounted to 26.3 µM. In addition, the “Dox/P. a: fold change (intrinsic MIC of test compound / combination MIC)” value in [8] is above 8 fold.

For `COc1ccc(/C=C/C(=O)NCCCNCCCCCCCCCCCCNCCCNC(=O)/C=C/c2ccc(OC)c(Br)c2)cc1Br.O=C(O)C(F)(F)F.O=C(O)C(F)(F)F` [Compound 15f, N^1,N^12-Bis(3-((E)-3-(3-bromo-4-methoxyphenyl)acrylamido)propyl)dodecane-1,12-diaminium 2,2,2-trifluoroacetate], the MIC was 6.12 µM in data set [1]; 6.12 µM in data set [3] (setting [11]); above 196 µM in data set [5]; at most 0.24 µM in [6]; at most 0.24 µM in data set [7]. For the same compound, the “Eryth/E. c: concentration required” value in data set [2] was 6.1 µM. Moreover, in data set [2], the “Eryth/E. c: fold change (intrinsic MIC of test compound / combination MIC)” value came out at 1 fold. In addition, the “Hemolysis (HC10) … at 10% hemolytic activity” value in [9] is recorded as 1.17 µM. For the same compound, the IC50 in [10] came out at 1.12 µM. Also, the “Dox/P. a: concentration required” value in [8] worked out at 49.0 µM. Besides, the “Dox/P. a: fold change (intrinsic MIC of test compound / combination MIC)” value in [8] is reported as above 4 fold.

`OC(Cn1cncn1)(Cn1cncn1)c1ccc(F)cc1F` [fluconazole, reference compound]: the MIC worked out at 0.4 µM (≈ 0.123 µg/mL) in data set [4] and 26 µM (≈ 7.96 µg/mL) in data set [6].

As to `[H]/N=C(/N)N[C@H]1[C@H](O)[C@@H](O)[C@H](O[C@@H]2O[C@@H](C)[C@](O)(C=O)[C@H]2O[C@@H]2O[C@@H](CO)[C@H](O)[C@@H](O)[C@@H]2NC)[C@@H](N/C(N)=N\[H])[C@@H]1O` [streptomycin, reference compound], the MIC in data set [1], in [3] (setting [11]) and in [5] was 21.5 µM (≈ 12.5 µg/mL) in each case.

For the compound `CC/C(=C(\c1ccccc1)c1ccc(OCCN(C)C)cc1)c1ccccc1` [tamoxifen, reference compound], the IC50 in [10] is 24 µM.
